Measurements: ChEMBL document CHEMBL1806444, “Synthesis of new chalcone derivatives bearing 2,4-thiazolidinedione and benzoic acid moieties as potential anti-bacterial agents” (2011)

Columns and labels:
Assay type in all cases: functional
[1] = system: Escherichia coli; assay: Antibacterial activity against 10^5 CFU/mL Escherichia coli 1356 assessed as inhibition of bacterial growth after 24 hrs by microtiter enzyme-linked immunosorbent assay; conditions: Escherichia coli, 1356, 24 h
[2] = system: Staphylococcus aureus; assay: Antibacterial activity against 10^5 CFU/mL Staphylococcus aureus RN4220 assessed as inhibition of bacterial growth after 24 hrs by microtiter enzyme-linked immunosorbent assay; conditions: RN4220, 24 h
[3] = system: Escherichia coli; assay: Antibacterial activity against 10^5 CFU/mL Escherichia coli 1682 assessed as inhibition of bacterial growth after 24 hrs by microtiter enzyme-linked immunosorbent assay; conditions: Escherichia coli, 1682, 24 h
[4] = system: Staphylococcus aureus; assay: Antibacterial activity against 10^5 CFU/mL Staphylococcus aureus KCTC 503 assessed as inhibition of bacterial growth after 24 hrs by microtiter enzyme-linked immunosorbent assay; conditions: KCTC 503, 24 h

Measured: MIC

COC(=O)c1ccc(CN2C(=O)S/C(=C\c3ccc(/C=C/C(=O)c4ccccc4O)cc3)C2=O)cc1
> 64 µg/mL: all assays above

COC(=O)c1ccc(CN2C(=O)S/C(=C\c3ccc(/C=C/C(=O)c4cccc(O)c4)cc3)C2=O)cc1
> 64 µg/mL: all assays above

COC(=O)c1ccc(CN2C(=O)S/C(=C\c3ccc(/C=C/C(=O)c4ccccc4OC)cc3)C2=O)cc1
> 64 µg/mL: all assays above

COC(=O)c1ccc(CN2C(=O)S/C(=C\c3ccc(/C=C/C(=O)c4cccc(OC)c4)cc3)C2=O)cc1
> 64 µg/mL: all assays above

COC(=O)c1ccc(CN2C(=O)S/C(=C\c3ccc(/C=C/C(=O)c4cccc(Br)c4)cc3)C2=O)cc1
> 64 µg/mL: all assays above

COC(=O)c1ccc(CN2C(=O)S/C(=C\c3ccc(/C=C/C(=O)c4ccc(Br)cc4)cc3)C2=O)cc1
> 64 µg/mL: all assays above

COC(=O)c1ccc(CN2C(=O)S/C(=C\c3ccc(/C=C/C(=O)c4ccc(Cl)cc4)cc3)C2=O)cc1
> 64 µg/mL: all assays above

COC(=O)c1ccc(CN2C(=O)S/C(=C\c3ccc(/C=C/C(=O)c4ccccc4Br)cc3)C2=O)cc1
> 64 µg/mL: all assays above

COC(=O)c1ccc(CN2C(=O)S/C(=C\c3ccc(/C=C/C(=O)c4ccccc4Cl)cc3)C2=O)cc1
> 64 µg/mL: all assays above

COC(=O)c1ccc(CN2C(=O)S/C(=C\c3ccc(/C=C/C(=O)c4cccc(Cl)c4)cc3)C2=O)cc1
> 64 µg/mL: all assays above

COC(=O)c1ccc(CN2C(=O)S/C(=C\c3ccc(/C=C/C(=O)c4ccccc4F)cc3)C2=O)cc1
> 64 µg/mL: all assays above

COC(=O)c1ccc(CN2C(=O)S/C(=C\c3ccc(/C=C/C(=O)c4ccc(F)cc4)cc3)C2=O)cc1
> 64 µg/mL: all assays above

COC(=O)c1ccc(CN2C(=O)S/C(=C\c3ccc(/C=C/C(=O)c4ccc(C)cc4C)cc3)C2=O)cc1
> 64 µg/mL: all assays above

COC(=O)c1ccc(CN2C(=O)S/C(=C\c3ccc(/C=C/C(=O)c4ccc(Cl)cc4Cl)cc3)C2=O)cc1
> 64 µg/mL: all assays above

COC(=O)c1ccc(CN2C(=O)S/C(=C\c3ccc(/C=C/C(=O)c4ccccc4)cc3)C2=O)cc1
> 64 µg/mL: all assays above

COC(=O)c1ccc(CN2C(=O)S/C(=C\c3ccc(/C=C/C(=O)c4ccc5ccccc5c4)cc3)C2=O)cc1
> 64 µg/mL: all assays above

COC(=O)c1ccc(CN2C(=O)S/C(=C\c3ccc(/C=C/C(=O)c4ccc(C)cc4)cc3)C2=O)cc1
> 64 µg/mL: all assays above

O=C(O)c1ccc(CN2C(=O)S/C(=C\c3ccc(/C=C/C(=O)c4ccc5ccccc5c4)cc3)C2=O)cc1
> 64 µg/mL: all assays above

Cc1ccc(C(=O)/C=C/c2ccc(/C=C3\SC(=O)N(Cc4ccc(C(=O)O)cc4)C3=O)cc2)cc1
> 64 µg/mL: all assays above

Cc1ccc(C(=O)/C=C/c2ccc(/C=C3\SC(=O)N(Cc4ccc(C(=O)O)cc4)C3=O)cc2)c(C)c1
> 64 µg/mL: all assays above
